Consider 7 molecules from ChEMBL document CHEMBL1201862, “PubChem BioAssay data set” (2004).

Some test systems named below: NCI-H226; HT-29; IGROV-1; SK-MEL-5; K562; PC-3; CCRF-CEM; HCT-15; NCI/ADR-RES; Malme-3M; A549; NCI-H522; COLO 205; KM12; Hs-578T; SK-OV-3; LOX IMVI; 786-0; OVCAR-4; HOP-62.
What all share (assay): NCI tumour cell line growth inhibition, 48 h

Each structure is given as a SMILES string.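 1) Cells in 96-well plates. 2) Compound, 48 h, 5 concentrations. 3) Linear interpolation between surrounding doses. 4) Unreached endpoint = highest concentration. At the GI50, growth is halved.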 Activity calls are given as the source filed them. Cut-off read from the data, not from the text of the source: active = GI50 up to about 1.1 µM and inactive = higher.

For the molecule `O=C(c1ccccc1)c1ccc2c(c1)NC(=O)c1ccccc1SSc1ccccc1C(=O)N2`, the GI50 in the experiment with NCI-H226, in the experiment with HT-29, in the experiment with IGROV-1, in the experiment with SK-MEL-5, in the experiment with K562 and in the experiment on PC-3 was > 100 µM (inactive) in each case. For the same molecule, the GI50 is > 100 µM (inactive) in the experiment on CCRF-CEM; greater than 100 µM in the experiment on HCT-15; > 100 µM (inactive) in the experiment with NCI/ADR-RES; > 100 µM (inactive) with Malme-3M; > 100 µM (inactive) with A549; > 100 µM (inactive) with NCI-H522. For the same molecule, the GI50 with COLO 205, in the experiment on KM12, with Hs-578T, with SK-OV-3, in the experiment with LOX IMVI and in the experiment with 786-0 was > 100 µM (inactive) in each case. The GI50 in the experiment with OVCAR-4 and with HOP-62 was > 100 µM (inactive) each time.
Consider `CCOC(=O)N1CCN(c2c(C)nc(C)nc2O)CC1`, for which the GI50 with NCI-H226, with HT-29, in the experiment on IGROV-1, with SK-MEL-5, in the experiment on K562 and in the experiment on PC-3 was > 100 µM (inactive) throughout. The GI50 in the experiment with CCRF-CEM was > 100 µM (inactive); in the experiment on HCT-15, greater than 100 µM; with NCI/ADR-RES, > 100 µM (inactive); with Malme-3M, > 100 µM (inactive); in the experiment with A549, > 100 µM (inactive); in the experiment on NCI-H522, > 100 µM (inactive). The GI50 with COLO 205, in the experiment with KM12, with Hs-578T, with SK-OV-3, in the experiment on LOX IMVI and in the experiment with 786-0 was > 100 µM (inactive) in each case. Further, the GI50 with OVCAR-4 and in the experiment with HOP-62 was > 100 µM (inactive) each time.
Turning to `Cc1cc(OCc2nc(N)nc(N)c2-c2ccc(Cl)c(Cl)c2)ccc1[N+](=O)[O-]`, the GI50 was 8.67 µM (inactive) in the experiment on NCI-H226; 0.0927 µM (active) in the experiment on HT-29; 0.0723 µM (active) with IGROV-1; 0.224 µM (active) in the experiment with SK-MEL-5; 0.0255 µM (active) with K562; 0.467 µM (active) in the experiment with PC-3. Besides, the GI50 was 0.0235 µM (active) in the experiment on CCRF-CEM; 0.0893 µM in the experiment on HCT-15; 0.404 µM (active) in the experiment with NCI/ADR-RES; 2.59 µM (inactive) with Malme-3M; 0.0352 µM (active) in the experiment with A549; 0.893 µM (active) with NCI-H522. The GI50 in the experiment with COLO 205 was 0.705 µM (active); with KM12 it was 0.692 µM (active); in the experiment with Hs-578T, 12.2 µM (inactive); in the experiment with SK-OV-3, 3.01 µM (inactive); in the experiment on LOX IMVI it was 0.0818 µM (active); in the experiment on 786-0 it was 0.104 µM (active). The GI50 in the experiment on OVCAR-4 was 2.19 µM (inactive); with HOP-62, 0.379 µM (active).
Turning to `CC(=N\N)/C(C)=N/N=C(C)/C(C)=N/N=C(C)/C(C)=N/N`, the GI50 with NCI-H226, in the experiment with HT-29, with IGROV-1, with SK-MEL-5, with K562 and with PC-3 was > 100 µM (inactive) each time. Moreover, the GI50 in the experiment on CCRF-CEM is > 100 µM (inactive); in the experiment on HCT-15, greater than 100 µM; with NCI/ADR-RES, > 100 µM (inactive); with Malme-3M, > 100 µM (inactive); with A549, > 100 µM (inactive); with NCI-H522, > 100 µM (inactive). The GI50 with COLO 205, in the experiment with KM12, with Hs-578T, in the experiment on SK-OV-3, in the experiment with LOX IMVI and with 786-0 was > 100 µM (inactive) throughout. Moreover, the GI50 in the experiment on OVCAR-4 and in the experiment on HOP-62 was > 100 µM (inactive) in each case.
For the molecule `OCc1ccc(-c2ccc(-c3ccc(CO)s3)o2)s1`, the GI50 in the experiment on NCI-H226 was 0.0375 µM (active); in the experiment on HT-29, 0.432 µM (active); with IGROV-1 it was 0.0373 µM (active); in the experiment with SK-MEL-5, 20.7 µM (inactive); in the experiment with K562 it was 0.596 µM (active); in the experiment with PC-3, 44.5 µM (inactive). Moreover, the GI50 in the experiment with CCRF-CEM is 2.59 µM (inactive); with HCT-15 it was 8.09 µM; in the experiment with NCI/ADR-RES it was 13.2 µM (inactive); in the experiment on Malme-3M, 57 µM (inactive); in the experiment on A549, 2.36 µM (inactive); with NCI-H522 it was 29.2 µM (inactive). The GI50 in the experiment on COLO 205 is 0.335 µM (active); in the experiment with KM12 it was 20.7 µM (inactive); with Hs-578T, 27.7 µM (inactive); with SK-OV-3, 7.06 µM (inactive); in the experiment on LOX IMVI, 21.8 µM (inactive); in the experiment on 786-0, 4.6 µM (inactive). Besides, the figures for the GI50 with OVCAR-4 and in the experiment with HOP-62 were 0.212 µM (active) and 0.103 µM (active), respectively.
As for `O=C1c2ccccc2C(=O)c2c(NCCNC(=O)C3CCCN3)ccc(NCCNC(=O)C3CCCN3)c21` (stereo not given), the GI50 in the experiment with NCI-H226 was > 100 µM (inactive); in the experiment with HT-29 it was 47.4 µM (inactive); with IGROV-1, 62.7 µM (inactive); in the experiment on SK-MEL-5, 88.5 µM (inactive); in the experiment with K562, 19.2 µM (inactive); in the experiment on PC-3 it was 67.9 µM (inactive). For the same molecule, the GI50 is 18.8 µM (inactive) in the experiment on CCRF-CEM; greater than 100 µM with HCT-15; > 100 µM (inactive) with NCI/ADR-RES; 95.9 µM (inactive) in the experiment with Malme-3M; > 100 µM (inactive) in the experiment with A549; 19.9 µM (inactive) with NCI-H522. The GI50 in the experiment on COLO 205 was 24.5 µM (inactive); with KM12 it was 23.2 µM (inactive); in the experiment on Hs-578T, 37.1 µM (inactive); in the experiment on SK-OV-3, > 100 µM (inactive); in the experiment with LOX IMVI, 0.0415 µM (active); with 786-0, 0.219 µM (active). For the same molecule, the figures for the GI50 in the experiment with OVCAR-4 and with HOP-62 were > 100 µM (inactive) and 45 µM (inactive), respectively.
On to `CC1(C)CC(O)C2=C(O1)C(=O)c1ncccc1C2=O` (stereo not given), for which the GI50 with NCI-H226 is 1.87 µM (inactive); with HT-29 it was 3.05 µM (inactive); in the experiment on IGROV-1, 2.17 µM (inactive); with SK-MEL-5 it was 1.66 µM (inactive); in the experiment with K562 it was 2.11 µM (inactive); in the experiment with PC-3, 2.9 µM (inactive). Also, the GI50 is 2.19 µM (inactive) in the experiment on CCRF-CEM; 4.02 µM in the experiment on HCT-15; 1.5 µM (inactive) with NCI/ADR-RES; 1.49 µM (inactive) in the experiment with Malme-3M; 9.51 µM (inactive) with A549; 1.29 µM (inactive) in the experiment with NCI-H522. Besides, the GI50 was 2.32 µM (inactive) with COLO 205; 3.48 µM (inactive) with KM12; 2.7 µM (inactive) in the experiment on Hs-578T; 13.7 µM (inactive) with SK-OV-3; 1.58 µM (inactive) in the experiment on LOX IMVI; 1.87 µM (inactive) in the experiment on 786-0. Further, the GI50 in the experiment with OVCAR-4 is 1.73 µM (inactive); in the experiment with HOP-62 it was 1.85 µM (inactive).
